Data: patent US20080312220A1, “Oxadiazole Derivatives with Crth2 Receptor Activity” (priority 2005, published 2008)

Columns and labels:
human CRTH2 receptor = molecular target: T1, human CRTH2 receptor (Homo sapiens, UniProt Q9Y5Y4); assay: Receptor binding assay, competition with [3H]PGD2 on whole transfected cells; settings: competition with 0.1 nM [3H]PGD2, whole cells expressing CRTH2
T1 construct: expressed in transfected cells; host or cells: COS-7 cells, transient transfection (calcium phosphate)
T1 sequence (Q9Y5Y4 1-395): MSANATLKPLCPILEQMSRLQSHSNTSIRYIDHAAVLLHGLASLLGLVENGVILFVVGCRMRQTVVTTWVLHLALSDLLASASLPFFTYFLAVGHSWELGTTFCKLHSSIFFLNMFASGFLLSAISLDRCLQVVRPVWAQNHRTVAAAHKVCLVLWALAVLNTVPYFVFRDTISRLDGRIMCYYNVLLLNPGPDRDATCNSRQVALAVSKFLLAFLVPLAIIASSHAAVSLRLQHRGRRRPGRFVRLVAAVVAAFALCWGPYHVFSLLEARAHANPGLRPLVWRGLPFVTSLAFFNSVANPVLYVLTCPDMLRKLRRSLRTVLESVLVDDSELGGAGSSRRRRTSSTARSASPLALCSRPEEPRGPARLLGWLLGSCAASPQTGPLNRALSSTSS
From the text: (§1) Generation/origin of the cDNA Constructs. The coding sequence of the human CRTH2 receptor (genbank accession no NM_004778) was amplified by PCR from a human hippocampus cDNA library and inserted into the pcDNA3.1(+) expression vector (invitrogen) via 5′ HindIII and 3′ EcoRI. To generate a CRTH2-Renilla luciferase (CRTH2-Rluc) fusion protein, the CRTH2 coding sequence without a STOP codon and Rluc were amplified, fused in frame by PCR and subcloned into the pcDNA3.1(+)Zeo expression vector (invitrogen). Human β-arrestin2 (β-arr2) N-terminally tagged with GFP^2 (βarr2-GFP^2) and Renilla luciferase were purchased from BioSignal Packard Inc, (Montreal, Canada). The sequence identity of the construct was verified by restriction endonuclease digests and sequencing in both directions on an ABI Prism (Applied Biosystems, Foster City, Calif.).
(§2) Cell Culture and Transfection. COS-7 cells were grown in Dulbecco's modified Eagle's medium (DMEM) 1885 supplemented with 10% fetal bovine serum, 100 units/ml penicillin, […], and kept at 37° C. in a 10% CO2 atmosphere. HEK293 cells were maintained in Minimum Essential medium (MEM) supplemented with 10% (v/v) heat inactivated fetal calf serum (HIFCS), 2 mM Glutamax™-I, 1% non essential amino acids (NEAA), 1% sodium pyruvate and 10 μg/ml gentamicin. For binding experiments, COS7 cells were transiently transfected with the CRTH2 receptor using a calcium phosphate-DNAcoprecipitation method with the addition of chloroquine (as described by Holst et al., 2001↓). To perform the functional Bioluminescence Resonance Energy Transfer (BRET) assays, a HEK293 cell clone stably expressing Parr2-GFP^2 and CRTH2-Rluc was generated (CRTH2-HEK293 cells).
Binding assay. 24 h after transfection COS-7 cells were seeded into 96 well plates at a density of 30.000 cells/well. Competition binding experiments on whole cells were then performed about 18-24 h later using 0.1 nM [^3H]PGD2 (NEN, 172 Ci/mmol) in a binding buffer consisting of HBSS (GIBCO) and 10 mM HEPES. Competing ligands were diluted in DMSO which was kept constant at 1% (v/v) of the final incubation volume. Total and nonspecific binding were determined in the absence and presence of 10 μM PGD2. Binding reactions were routinely conducted for 3 h at 4° C. and terminated by 2 washes (100 μl each) with ice cold binding buffer. Radioactivity was determined by liquid scintillation counting in a TOPCOUNTER (Packard) following over night incubation in Microscint 20. Stable HEK293 cells were seeded at a density of 30.000 cells/well 18-24 h prior to the binding assay which was performed essentially as described for COS7 cells above. Determinations were made in duplicates.
(§3) Curve analysis was performed with the GraphPadPrism software 3.0 (Graphpad Prism Inc., San Diego, USA) and IC50 values were calculated as a measure of the antagonistic potencies.

human CRTH2-Rluc = molecular target: T2, human CRTH2-Rluc (Homo sapiens, UniProt Q9Y5Y4); assay: Functional antagonist BRET assay (CRTH2-Rluc / GFP2-β-arrestin2 in HEK293 cells); assay type: cell-based; settings: HEK293 cells stably expressing CRTH2-Rluc and GFP2-β-arr2, read-out: Antag. IC50
T2 construct: expressed in transfected cells; host or cells: HEK293 cell clone stably expressing βarr2-GFP2 and CRTH2-Rluc
T2 sequence (Q9Y5Y4 1-395): T1 sequence (Q9Y5Y4 1-395)
From the text: as §1, §2
BRET assay. Functional BRET assays were performed on HEK293 cells stably expressing human CRTH2-Rluc and GFP^2-β-arr2. Prior to their use in the BRET assay cells were detached and re-suspended in D-PBS with 1000 mg/L L-Glucose at a density of 2×10^6 cells/mL. DeepBlueC™ was diluted to 50 μM in D-PBS with 1000 mg/L L-Glucose (light sensitive). 100 μL of cell suspension was transferred to wells in a 96-well microplate (white OptiPlate) and placed in the Mithras LB 940 instrument (BERTHOLD TECHNOLOGIES, Bad Wildbad, Germany). 12 μL/well agonist was then injected by injector 1 and 10 μL/well DeepBlueC™ was injected simultaneously by injector 2. Five seconds after the injections the light output from the well was measured sequentially at 400 nm and 515 nm, and the BRET signal (mBRET ratio) was calculated by the ratio of the fluorescence emitted by GFP^2-β-arr2 (515 nm) over the light emitted by the receptor-Rluc (400 nm). Antagonists were added before placing the microplates into the Mithras LB 940 and allowed to incubate for 15 minutes prior to the addition of agonist and DeepBlueC™. Compounds were dissolved in DMSO and the final DMSO concentration was kept constant at 1% in the assay.
as §3

| SMILES | IC50 (human CRTH2 receptor) | IC50 (human CRTH2-Rluc) |
| --- | --- | --- |
| CS(=O)(=O)N1CCC(c2ccccc2)(c2noc(-c3cc(Br)ccc3OCC(=O)O)n2)CC1 [Example D10, {4-Bromo-2-[3-(1-methanesulfonyl-4-phenyl-piperidin-4-yl)-[1,2,4]oxadiazol-5-yl]-phenoxy}-acetic acid] | < 500 nM | < 500 nM |
| O=C(O)COc1ccc(Br)cc1-c1nc(C2(c3ccccc3)CCN(C(=O)CO)CC2)no1 [Example D18, (4-Bromo-2-{3-[1-(2-hydroxy-acetyl)-4-phenyl-piperidin-4-yl]-[1,2,4]oxadiazol-5-yl}-phenoxy)-acetic acid] | < 500 nM | < 500 nM |
| O=C(O)COc1ccc(Br)cc1-c1nc(C2(c3ccccc3)CCN(C(=O)C3CC3)CC2)no1 [Example D12, {4-Bromo-2-[3-(1-cyclopropanecarbonyl-4-phenyl-piperidin-4-yl)-[1,2,4]oxadiazol-5-yl]-phenoxy}-acetic acid] | < 500 nM | < 500 nM |
| CN1CCC(c2ccccc2)(c2noc(-c3cc(Br)ccc3OCC(=O)O)n2)CC1 [Example D11, {4-Bromo-2-[3-(1-methyl-4-phenyl-piperidin-4-yl)-[1,2,4]oxadiazol-5-yl]-phenoxy}-acetic acid] | < 500 nM | < 500 nM |
| O=C(O)COc1ccc(Br)cc1-c1nc(C2(c3c(Cl)cccc3Cl)CC2)no1 [Example D13, (4-Bromo-2-{3-[1-(2,6-dichloro-phenyl)-cyclopropyl]-[1,2,4]oxadiazol-5-yl}-phenoxy)-acetic acid] | < 500 nM | < 500 nM |
| CCC(=O)N1CCC(c2ccccc2)(c2noc(-c3cc(Br)ccc3OCC(=O)O)n2)CC1 [Example D7, {4-Bromo-2-[3-(4-phenyl-1-propionyl-piperidin-4-yl)-[1,2,4]oxadiazol-5-yl]-phenoxy}-acetic acid] | < 500 nM | < 500 nM |
| CC(=O)N1CCC(c2ccccc2)(c2noc(-c3cc(Br)ccc3OCC(=O)O)n2)CC1 [Example D2, {2-[3-(1-Acetyl-4-phenyl-piperidin-4-yl)-[1,2,4]oxadiazol-5-yl]-4-bromo-phenoxy}-acetic acid] | < 500 nM | < 500 nM |
| CS(=O)(=O)N1CCC(c2ccc(F)cc2)(c2noc(-c3cc(Br)ccc3OCC(=O)O)n2)CC1 [Example D19, (4-Bromo-2-{3-[4-(4-fluoro-phenyl)-1-methanesulfonyl-piperidin-4-yl]-[1,2,4]oxadiazol-5-yl}-phenoxy)-acetic acid] | < 500 nM | < 500 nM |
| O=C(O)COc1ccc(Br)cc1-c1nc(C2(c3ccc(F)cc3)CC2)no1 [Example D6, (4-Bromo-2-{3-[1-(4-fluoro-phenyl)-cyclopropyl]-[1,2,4]oxadiazol-5-yl}-phenoxy)-acetic acid] | < 500 nM | < 500 nM |
| O=C(O)COc1ccc(Br)cc1-c1nc(C2(c3ccccc3)CCNCC2)no1 [Example D5, {4-Bromo-2-[3-(4-phenyl-piperidin-4-yl)-[1,2,4]oxadiazol-5-yl]-phenoxy}-acetic acid] | < 500 nM | 500 to 5000 nM |
| O=C(O)COc1ccc(Br)cc1-c1nc(C(c2ccccc2)N2CCOCC2)no1 (stereo not drawn) [Example D4] | < 500 nM | < 500 nM |
| CC(=O)OCC(=O)N1CCC(c2ccccc2)(c2noc(-c3cc(Br)ccc3OCC(=O)O)n2)CC1 [Example D17, (2-{3-[1-(2-Acetoxy-acetyl)-4-phenyl-piperidin-4-yl]-[1,2,4]oxadiazol-5-yl}-4-bromo-phenoxy)-acetic acid] | < 500 nM | < 500 nM |
| O=C(O)COc1ccc(Br)cc1-c1nc(C2(c3ccc(Cl)cc3Cl)CC2)no1 [Example D9, (4-Bromo-2-{3-[1-(2,4-dichloro-phenyl)-cyclopropyl]-[1,2,4]oxadiazol-5-yl}-phenoxy)-acetic acid] | < 500 nM | < 500 nM |
| O=C(O)COc1ccc(Br)cc1-c1nc(C2(c3ccccc3)CCN(S(=O)(=O)C3CC3)CC2)no1 [Example D15, {4-Bromo-2-[3-(1-cyclopropanesulfonyl-4-phenyl-piperidin-4-yl)-[1,2,4]oxadiazol-5-yl]-phenoxy}-acetic acid] | < 500 nM | < 500 nM |
| C[C@H](Oc1ccc(Br)cc1-c1nc(C2(c3ccc(F)cc3)CC2)no1)C(=O)O [Example D21, (S)-2-(4-Bromo-2-{3-[1-(4-fluoro-phenyl)-cyclopropyl]-[1,2,4]oxadiazol-5-yl}-phenoxy)-propionic acid] | < 500 nM | < 500 nM |
| COC(=O)N1CCC(c2ccccc2)(c2noc(-c3cc(Br)ccc3OCC(=O)O)n2)CC1 [Example D16, 4-[5-(5-Bromo-2-carboxymethoxy-phenyl)-[1,2,4]oxadiazol-3-yl]-4-phenyl-piperidine-1-carboxylic acid methyl ester] | < 500 nM | < 500 nM |
| O=C(O)COc1ccc(Br)cc1-c1nc(C2(c3ccccc3)CCCCC2)no1 [Example D3, {4-Bromo-2-[3-(1-phenyl-cyclohexyl)-[1,2,4]oxadiazol-5-yl]-phenoxy}-acetic acid] | < 500 nM | < 500 nM |
| O=C(O)COc1ccc(Br)cc1-c1nc(C2(c3ccccc3)CC2)no1 [Example D1, {4-Bromo-2-[3-(1-phenylcyclopropyl)-[1,2,4]oxadiazol-5-yl]phenoxy}acetic acid] | < 500 nM | < 500 nM |
| O=C(O)COc1ccc(Br)cc1-c1nc(C(c2ccc(F)cc2)N2CCS(=O)(=O)CC2)no1 (stereo not drawn) [Example D20, (4-Bromo-2-{3-[(1,1-dioxo-1lambda*6*-thiomorpholin-4-yl)-(4-fluoro-phenyl)-methyl]-[1,2,4]oxadiazol-5-yl}-phenoxy)-acetic acid] | < 500 nM | < 500 nM |
| O=C(O)COc1ccc(Br)cc1-c1nc(C2(c3ccccc3)CCC2)no1 [Example D14, {4-Bromo-2-[3-(1-phenyl-cyclobutyl)-[1,2,4]oxadiazol-5-yl]-phenoxy}-acetic acid] | < 500 nM | < 500 nM |
| CC(C)C(=O)N1CCC(c2ccccc2)(c2noc(-c3cc(Br)ccc3OCC(=O)O)n2)CC1 [Example D8, {4-Bromo-2-[3-(1-isobutyryl-4-phenyl-piperidin-4-yl)-[1,2,4]oxadiazol-5-yl]-phenoxy}-acetic acid] | < 500 nM | < 500 nM |
